Where two headings read alike, the source gives them in different places.
Key:
[1] = test system: Ca^2+, K^+ and Na^+ channel; set-up: method as in PMID 15650337, PMID 15979567; settings: dose- and voltage-dependent; cited from earlier work
[2] = test system: human fecal microflora; set-up: method as in PMID 11824558; settings: cited from earlier work
[3] = target: T1, P-gp (Homo sapiens, UniProt P08183); test: P-gp mediated bidirectional transport of digoxin across Caco-2 cell monolayers; assay type: cell-based
T1 construct: host or cells: Caco-2 cell monolayers
Description: The Caco-2 cell transport model was established as described previously. Then, Hank's balanced salt solution (HBSS) containing 20(S)-Rh2, 20(R)-Rh2, 20(S)-Ppd, 20(R)-Ppd or 0.1% DMSO (control) was loaded into both apical and basolateral chambers. After incubation at 37°C for 1 h, 5 µM digoxin was added to either apical or basolateral side to evaluate the transport in absorptive and secretory direction respectively. After incubation for just another 2 h, samples were taken from the receiving chamber for analysis. Verapamil (10 µM) was used as a positive control. Digoxin was determined by LC-MS/MS. All experiments were conducted in triplicate.
For the transport assay, the apparent permeability coefficient (Papp) and efflux ratio (ER) were calculated as reported previously.

[4] = Oral pharmacokinetics of 20(S)-Rh2 and 20(R)-Rh2 in rats (stereoselective LC-MS); assay type: in vivo, rat; settings: for Detection in plasma: after oral administration of 20(R)-Rh2, rats; for Cmax / Tmax / MRT last: Sprague-Dawley, rat, po; for MRT last: read-out: MRT 0-t (converted); for Inverted proportion (chiral inversion): after oral administration of a single configuration of Rh2, rats
Description: To investigate the differences of pharmacokinetic characteristics between 20(S)-Rh2 and 20(R)-Rh2, rats were divided into 2 groups with five rats for each group. One received a single dose of 20(S)-Rh2 intragastrically at 25 mg/kg suspended in 0.5% CMC-Na, while the other received 20(R)-Rh2 at the same dosage. Blood samples were collected at 0, 30, 60, 180, 240, 300, 360, 480, 660 and 840 min after oral administration into heparinized tubes. Plasma was obtained by centrifugation at 5000 g for 10 min and stored at −20°C before analysis.
The 20(S)-Rh2, 20(R)-Rh2 and the deglycosylation metabolites 20(S)-Ppd and 20(R)-Ppd were quantified simultaneously by reversed-phase LC-MS. An aliquot of 100 µl sample spiked with digitoxin as internal standard was extracted by 1 ml ethylacetate. The analysis was performed on Finnigan LC-MS system (Thermo Electron, San Jose, CA, USA) with a Lux Cellulose-1 Chiral Column (250×4.6 mm, 5 µm, Phenomenex, USA). The column and autosampler tray temperatures were 40 and 4°C, respectively. The mobile phase was consisted of methanol, acetonitrile and 0.1% formic acid with gradient elution (Table 5). Mass spectrometer was operated in positive ESI mode. MS parameters were as follows: spray voltage, 5.0 kV; sheath gas/auxiliary gas, nitrogen; sheath gas pressure, 35×10^5 Pa; auxiliary gas pressure, 20×10^5 Pa; ion transfer capillary temperature, 300°C. Quantification was performed using SIM mode with [M+Na]^+ peak: m/z 645.4 for Rh2; m/z 483.3 for Ppd; m/z 787.5 for digitoxin (internal standard).
(§1) The pharmacokinetic parameters of digoxin, 20(S)-Rh2 and 20(R)-Rh2 in rats were obtained by noncompartmental analysis using DAS (Drug and Statistics, version 2.1, Chinese Pharmacological Society). The area under the plasma concentration-time curve (AUC) was calculated using the trapezoidal method.

[5] = test system: osteoclasts; settings: cited from earlier work
[6] = test system: osteoclastgenesis; settings: cited from earlier work
[7] = test system: P-glycoprotein (P-gp); settings: in vitro and in vivo; cited from earlier work
[8] = test system: androgen-dependent and –independent prostate cancer cells; set-up: method as in PMID 20554003; settings: cited from earlier work
[9] = test system: P-gp; test: Effects of Rh2 epimers on oral pharmacokinetics of P-gp substrate digoxin in rats; assay type: in vivo, rat
Description: The rats were divided into five groups with five each. One group of rats received i.g. single dose of the vehicle (0.5% CMC-Na) serving as the control. Two groups were i.g. administered 20(S)-Rh2 suspended in 0.5% CMC-Na at the doses of 5 mg/kg and 50 mg/kg respectively, while another two groups i.g. administration of 20(R)-Rh2 suspended in 0.5% CMC-Na at the doses of 5 mg/kg and 50 mg/kg respectively. Two hours later, P-gp substrate, digoxin (0.25 mg/kg) was given to the rats by i.g. administration. Blood samples were collected before the P-gp substrate dosing and at 0.08, 0.17, 0.25, 0.5, 1, 2, 3, 6, 8 h post-digoxin-dosing. Plasma was obtained by centrifugation at 5000 g for 10 min and stored at −20°C before analysis. Plasma concentrations of digoxin were determined as described previously.
as §1

[10] = set-up: method as in PMID 19524010; settings: 1–9 mg/kg i.g., rats; cited from earlier work
[11] = 1 h preincubation, 5 µM digoxin 2 h, concentration series
[12] = in vivo, 25 mg/kg, after oral administration of the same epimer, rats
[13] = in vivo, 25 mg/kg, plasma analyte after i.g. 20(R)-Rh2 25 mg/kg, rats
[14] = in vivo, 25 mg/kg, plasma analyte after i.g. 20(S)-Rh2 25 mg/kg, rats
[15] = plasma analyte after i.g. 20(R)-Rh2 25 mg/kg, rats
[16] = plasma analyte after i.g. 20(S)-Rh2 25 mg/kg, rats

T1 sequence (P08183 whole entry): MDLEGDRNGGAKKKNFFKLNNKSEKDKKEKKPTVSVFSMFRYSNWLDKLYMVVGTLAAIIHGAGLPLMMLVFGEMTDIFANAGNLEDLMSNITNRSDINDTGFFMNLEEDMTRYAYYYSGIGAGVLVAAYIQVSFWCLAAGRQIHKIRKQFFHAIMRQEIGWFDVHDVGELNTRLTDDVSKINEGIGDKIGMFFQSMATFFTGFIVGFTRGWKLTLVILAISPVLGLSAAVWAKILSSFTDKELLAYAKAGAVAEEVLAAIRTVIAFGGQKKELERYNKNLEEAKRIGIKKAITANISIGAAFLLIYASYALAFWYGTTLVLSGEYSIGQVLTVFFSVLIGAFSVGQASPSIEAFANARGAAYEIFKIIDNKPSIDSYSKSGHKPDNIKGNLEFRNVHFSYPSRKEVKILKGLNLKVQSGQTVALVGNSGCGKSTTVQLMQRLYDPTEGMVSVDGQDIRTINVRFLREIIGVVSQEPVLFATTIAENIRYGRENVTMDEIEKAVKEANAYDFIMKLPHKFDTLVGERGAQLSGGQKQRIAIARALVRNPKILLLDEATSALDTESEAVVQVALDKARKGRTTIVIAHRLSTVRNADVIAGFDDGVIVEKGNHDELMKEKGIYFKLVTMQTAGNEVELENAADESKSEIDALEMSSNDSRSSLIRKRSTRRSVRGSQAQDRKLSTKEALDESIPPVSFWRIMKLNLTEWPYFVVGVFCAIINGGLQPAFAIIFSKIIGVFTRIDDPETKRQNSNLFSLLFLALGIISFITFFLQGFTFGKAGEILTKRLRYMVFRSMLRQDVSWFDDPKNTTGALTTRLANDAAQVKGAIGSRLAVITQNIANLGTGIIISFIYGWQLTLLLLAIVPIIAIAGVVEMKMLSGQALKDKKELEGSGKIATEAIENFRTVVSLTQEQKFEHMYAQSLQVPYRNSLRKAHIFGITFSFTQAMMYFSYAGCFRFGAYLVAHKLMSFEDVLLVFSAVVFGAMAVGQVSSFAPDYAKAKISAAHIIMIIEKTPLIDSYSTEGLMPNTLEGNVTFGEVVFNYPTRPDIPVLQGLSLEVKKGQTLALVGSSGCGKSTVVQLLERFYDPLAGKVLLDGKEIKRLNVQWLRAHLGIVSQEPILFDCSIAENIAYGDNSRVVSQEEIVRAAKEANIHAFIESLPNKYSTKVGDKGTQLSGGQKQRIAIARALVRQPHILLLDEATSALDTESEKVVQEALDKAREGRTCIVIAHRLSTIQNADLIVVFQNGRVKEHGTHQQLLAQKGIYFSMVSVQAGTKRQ

## CC(C)=CCC[C@](C)(O)[C@H]1CC[C@]2(C)[C@@H]1[C@H](O)C[C@@H]1[C@@]3(C)CC[C@H](O[C@@H]4O[C@H](CO)[C@@H](O)[C@H](O)[C@H]4O[C@@H]4O[C@H](CO)[C@@H](O)[C@H](O)[C@H]4O)C(C)(C)[C@@H]3CC[C@]12C [20(S)-ginsenoside Rg3]
[1]
  Inhibition of Ca^2+, K^+ and Na^+ channel currents: inhibited
[2]
  Amount transformed to 20(S)-ginsenoside Rh2, higher than 20(R)-Rg3 to 20(R)-Rh2: 19 fold

## CC(C)=CCC[C@@](C)(O)[C@H]1CC[C@]2(C)[C@@H]1[C@H](O)C[C@@H]1[C@@]3(C)CC[C@H](O)C(C)(C)[C@@H]3CC[C@]12C [20(R)-Ppd, 20(R)-protopanaxadiol]
[3]; [11]
  Effect on efflux ratio of digoxin across Caco-2 cell monolayers: lowered the efflux ratio of digoxin across Caco-2 cell monolayers concentration-dependently
[4]
  Detection in plasma: not detected

## CC(C)=CCC[C@@](C)(O)[C@H]1CC[C@]2(C)[C@@H]1[C@H](O)C[C@@H]1[C@@]3(C)CC[C@H](O)C(C)(C)[C@@H]3CC[C@]12C [Ppd, protopanaxadiol]
[4]
  Detection in plasma: no Ppd was found

## CC(C)=CCC[C@](C)(O)[C@H]1CC[C@]2(C)[C@@H]1[C@H](O)C[C@@H]1[C@@]3(C)CC[C@H](O[C@@H]4O[C@H](CO)[C@@H](O)[C@H](O)[C@H]4O)C(C)(C)[C@@H]3CC[C@]12C [20(S)-Rh2, 20(S)-ginsenoside Rh2]
[5]
  Cytotoxicity in osteoclasts: strong cytotoxicity
[6]
  Osteoclastgenesis inhibition: weak osteoclastgenesis inhibition
[3]; [11]
  Effect on efflux ratio of digoxin across Caco-2 cell monolayers: decreased the efflux ratio of digoxin crossing Caco-2 cell monolayers in a concentration-dependent manner
[7]
  P-gp inhibition: effective P-gp inhibitor both in vitro and in vivo
[8]
  Inhibition of proliferation of prostate cancer cells: inhibited the proliferation
[4]; [12]
  Cmax: ~1000 nM
[4]; [13]
  Cmax: 5 ± 1 ng/mL
  Tmax: 2.33 h
  MRT last: 2.2 h
[4]; [14]
  Cmax: 572 ± 162 ng/mL
  Tmax: 3.45 h
  MRT last: 3.35 h
[4]
  Inverted proportion (chiral inversion): ~10%
[4]; [15]
  AUC 0-t: 1193 ± 230 µg·min/L
[4]; [16]
  AUC 0-t: 149888 ± 40725 µg·min/L
[4]; same oral dosage, rats
  AUC higher than that of 20(R)-Rh2: 10 fold

## CC(C)=CCC[C@@](C)(O)[C@H]1CC[C@]2(C)[C@@H]1[C@H](O)C[C@@H]1[C@@]3(C)CC[C@H](O[C@@H]4O[C@H](CO)[C@@H](O)[C@H](O)[C@H]4O)C(C)(C)[C@@H]3CC[C@]12C [20(R)-Rh2, 20(R)-ginsenoside Rh2]
[5]
  Cytotoxicity in osteoclasts: without any cytotoxicity
[6]
  Osteoclastgenesis inhibition: selective osteoclastgenesis inhibitor
[3]; 1 µM, 5 µM digoxin
  Effect on efflux ratio of digoxin across Caco-2 cell monolayers: significantly lowered the efflux ratio of digoxin
[3]; elevated concentrations, 5 µM digoxin
  Effect on efflux ratio of digoxin across Caco-2 cell monolayers: the efflux ratio of digoxin were restored
[9]; 5 mg/kg i.g. prior to i.g. digoxin
  Effect on AUC and Cmax of digoxin: significantly enhanced
[9]; 50 mg/kg i.g. prior to i.g. digoxin
  Effect on absorption of digoxin compared with control group: not changed significantly
[4]; [12]
  Cmax: ≤ 50 nM
[4]; [13]
  Cmax: 29 ± 5 ng/mL
  Tmax: 4.75 h
  MRT last: 4.65 h
[4]; [14]
  Cmax: 17 ± 2 ng/mL
  Tmax: 2.1 h
  MRT last: 2.38 h
[4]
  Inverted proportion (chiral inversion): ~10%
[4]; [15]
  AUC 0-t: 13204 ± 2322 µg·min/L
[4]; [16]
  AUC 0-t: 8648 ± 1871 µg·min/L

## CC(C)=CCC[C@](C)(O)[C@H]1CC[C@]2(C)[C@@H]1[C@H](O)C[C@@H]1[C@@]3(C)CC[C@H](O[C@@H]4O[C@H](CO)[C@@H](O)[C@H](O)[C@H]4O)C(C)(C)[C@@H]3CC[C@]12C [Rh2, ginsenoside Rh2]
[10]
  Absolute bioavailability: 4.0–6.4%

## C[C@H]1O[C@@H](O[C@H]2[C@@H](O)C[C@H](O[C@H]3[C@@H](O)C[C@H](O[C@H]4CC[C@@]5(C)[C@H](CC[C@@H]6[C@@H]5C[C@@H](O)[C@]5(C)[C@@H](C7=CC(=O)OC7)CC[C@]65O)C4)O[C@@H]3C)O[C@@H]2C)C[C@H](O)[C@@H]1O [Digoxin]
[9]; Sprague-Dawley (SD), rat, plasma, po, digoxin 0.25 mg/kg i.g., control (no Rh2)
  Cmax: 9.9 ± 2.6 nM
[9]; Sprague-Dawley (SD), rat, plasma, po, digoxin 0.25 mg/kg i.g., control (no Rh2), read-out: AUC 0–12 of digoxin
  AUC 0-t: 0.0154 ± 0.0029 µM·h
[9]; Sprague-Dawley (SD), rat, plasma, po, digoxin 0.25 mg/kg i.g., control (no Rh2), read-out: MRT0–12 of digoxin
  MRT last: 1.7 ± 0.6 h
[9]; Sprague-Dawley (SD), rat, plasma, po, digoxin 0.25 mg/kg i.g., control (no Rh2), read-out: t1/2 of digoxin (converted)
  half-life: 1.2 ± 0.4 h

## CC(C)=CCC[C@](C)(O)[C@H]1CC[C@]2(C)[C@@H]1[C@H](O)C[C@@H]1[C@@]3(C)CC[C@H](O[C@@H]4O[C@H](CO)[C@@H](O)[C@H](O)[C@H]4O[C@@H]4O[C@H](CO)[C@@H](O)[C@H](O)[C@H]4O)C(C)(C)[C@@H]3CC[C@]12C [20(R)-ginsenoside Rg3]
[1]
  Inhibition of Ca^2+, K^+ and Na^+ channel currents: not

## CC(C)=CCC[C@](C)(O)[C@H]1CC[C@]2(C)[C@@H]1[C@H](O)C[C@@H]1[C@@]3(C)CC[C@H](O)C(C)(C)[C@@H]3CC[C@]12C [20(S)-Ppd, 20(S)-protopanaxadiol]
[3]; [11]
  Effect on efflux ratio of digoxin across Caco-2 cell monolayers: lowered the efflux ratio of digoxin across Caco-2 cell monolayers concentration-dependently
[4]; [16]
  Cmax: 85 ± 7 ng/mL
  Tmax: 8.67 h
  MRT last: 9.05 h
  AUC 0-t: 35129 ± 2261 µg·min/L

From paper PMC3329467, “Stereoselective Regulations of P-Glycoprotein by Ginsenoside Rh2 Epimers and the Potential Mechanisms From the View of Pharmacokinetics” (PLoS ONE, 2012)
